# From paper PMC9127364, “2-Aminoacrylate stress damages diverse PLP-dependent enzymes in vivo” (The Journal of Biological Chemistry, 2022)
# Legend:
# [1] = biological target: T1, Alr (Salmonella enterica, UniProt P0A1A3); assay: incubation with purified protein, base release of cofactors, HPLC; assay type: binding; details: covalent; suicide inhibitor, forms pyruvate-PLP in the active site; protein from ridA+ host
# T1 construct: pET20b derivative pDM1602, N-terminal His6 tag; expressed in and purified from S. enterica DM13509 (wild type) and DM17050 (ridA)
# [2] = biological target: T2, IlvA (Salmonella enterica, UniProt P20506); assay: base release of bound cofactor, HPLC at […] nm; assay type: binding; details: protein from wild-type (ridA+) host; 30 mM KOH release; storage buffer with 10 μM PLP
# T2 construct: pET20b derivative pDM1578, N-terminal His6 tag; expressed in S. enterica DM13509 (wild type) and DM17050 (ridA)
# T2 sequence (P20506 1-514): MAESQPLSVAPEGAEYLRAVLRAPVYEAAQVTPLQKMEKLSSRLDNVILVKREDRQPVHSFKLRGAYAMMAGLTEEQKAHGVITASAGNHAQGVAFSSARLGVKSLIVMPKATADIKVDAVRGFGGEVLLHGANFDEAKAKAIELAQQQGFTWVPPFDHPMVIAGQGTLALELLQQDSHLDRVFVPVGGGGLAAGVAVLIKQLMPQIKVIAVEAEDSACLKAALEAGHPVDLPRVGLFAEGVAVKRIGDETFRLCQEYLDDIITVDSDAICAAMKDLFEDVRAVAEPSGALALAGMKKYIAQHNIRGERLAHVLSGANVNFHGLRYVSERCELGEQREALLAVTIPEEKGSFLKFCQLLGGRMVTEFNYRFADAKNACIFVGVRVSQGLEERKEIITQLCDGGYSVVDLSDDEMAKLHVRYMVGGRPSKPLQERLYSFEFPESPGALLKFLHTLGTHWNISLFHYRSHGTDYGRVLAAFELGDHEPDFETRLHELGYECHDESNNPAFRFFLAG
# [3] = biological target: T1, Alr; assay: base release of bound cofactor, HPLC at […] nm; assay type: binding; details: protein from wild-type (ridA+) host; 30 mM KOH release; storage buffer with 10 μM PLP
# [4] = biological target: T3, IlvE (Salmonella enterica, UniProt P0A1A5); assay: base release of bound cofactor, HPLC at […] nm; assay type: binding; details: protein from wild-type (ridA+) host; 30 mM KOH release; storage buffer with 10 μM PLP
# T3 construct: pET28b plasmid, purified on HisTrap (His-tagged); expressed in S. enterica DM13509 (wild type) and DM17050 (ridA)
# T3 sequence (P0A1A5 2-309): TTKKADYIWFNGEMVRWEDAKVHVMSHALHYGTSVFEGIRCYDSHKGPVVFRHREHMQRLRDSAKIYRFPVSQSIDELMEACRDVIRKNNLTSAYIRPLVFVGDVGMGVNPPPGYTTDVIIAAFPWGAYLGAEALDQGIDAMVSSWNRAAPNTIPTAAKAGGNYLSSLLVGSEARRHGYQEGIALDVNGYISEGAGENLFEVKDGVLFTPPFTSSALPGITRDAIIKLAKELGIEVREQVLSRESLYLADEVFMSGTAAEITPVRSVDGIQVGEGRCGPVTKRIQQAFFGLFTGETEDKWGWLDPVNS
# [5] = biological target: T3, IlvE; assay: base release of bound cofactor, HPLC at […] nm; assay type: binding; details: protein from wild-type (ridA+) host; 30 mM KOH release; storage buffer with 10 μM PLP; remark: listed apart in the source
# [6] = biological target: T3, IlvE; assay: pyruvate-PLP adduct released by base from the purified protein, HPLC; assay type: cell-based; details: covalent; 2AA formed in vivo, ridA host, 5 mM L-serine; attacks active-site PLP
# [7] = biological target: T1, Alr; assay: as above; assay type: cell-based; details: covalent; 2AA formed in vivo, ridA host, 5 mM L-serine; attacks active-site PLP
# Text: pyruvate-PLP adduct released by base from the purified protein, HPLC on Alr
# [8] = biological target: T2, IlvA; assay: as above; assay type: cell-based; details: covalent; 2AA formed in vivo, ridA host, 5 mM L-serine; attacks active-site PLP
# Text: pyruvate-PLP adduct released by base from the purified protein, HPLC on IlvA
# T1 sequence (P0A1A3 whole entry): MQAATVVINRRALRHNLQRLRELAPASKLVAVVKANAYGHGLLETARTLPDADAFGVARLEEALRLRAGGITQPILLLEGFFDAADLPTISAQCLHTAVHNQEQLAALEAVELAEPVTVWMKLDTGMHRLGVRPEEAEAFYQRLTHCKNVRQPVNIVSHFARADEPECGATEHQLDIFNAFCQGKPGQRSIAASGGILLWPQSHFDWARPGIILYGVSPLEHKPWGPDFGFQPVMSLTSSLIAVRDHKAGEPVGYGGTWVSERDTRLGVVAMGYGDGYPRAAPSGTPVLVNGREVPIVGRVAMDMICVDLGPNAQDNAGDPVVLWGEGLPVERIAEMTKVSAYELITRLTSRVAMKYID
structure (smiles),measurement,setting,value
NC(CCl)C(=O)O (centres unmarked) [3CA],"incubation with purified protein, base release of cofactors, HPLC",[1],Alr but not IlvA is sensitive to 3-chloroalanine (3CA).
Cc1ncc(COP(=O)(O)O)c(C=O)c1O [PLP],PLP,[2],1.25 ± 0.04 nmol/nmol protein
same,PLP,[3],0.87 ± <0.01
same,PLP,[4],0.30 ± <0.01
Cc1ncc(COP(=O)(O)O)c(CN)c1O [PMP],PMP,[5],0.33 ± <0.01
C=C(N)C(=O)O [2AA],Pyruvate-PLP,[6],0.72 ± <0.01
same,Pyruvate-PLP,[7],0.11 ± <0.01
same,Pyruvate-PLP,[8],0.03 ± <0.01
